According to patent US20220054477A1, “INDUCTION OF SUSTAINED LOCAL INFLAMMATION” (Ascendis Pharma Oncology Division A/S, priority 2019, published 2022):
Marks after values point to notes of the source that are not given here.

Experiments:
CT26 tumor cells = test: In vivo anti-tumor efficacy, CT26 tumor volumes (Example 11); design: species or system BALB/C mice; settings: single intratumoral dose
Procedure: Mice were subcutaneously implanted with 3×10^5 CT26 tumor cells in the left and right flanks. […] Hydrogels were administered as suspensions in PBST buffer. Following treatment initiation, anti-tumor efficacy was assessed by determination of tumor volumes at various time points from tumor size measurements with a caliper. Tumor volumes were calculated according to the formula: […]
where L is the length of the tumor and W the width (both in mm). Mice were removed from the study once tumors were greater than 1500 mm^3.

TNFα = test: In vivo cytokine induction, plasma cytokine levels: TNFα (Example 12); design: species or system BALB/C mice; settings: single intratumoral dose
Procedure: Mice were subcutaneously implanted with 3×10^5 CT26 tumor cells in the left and right flanks. […] Hydrogels were administered as suspensions in PBST buffer. K2 EDTA-preserved blood samples were collected by retro-orbital bleed at various time points following drug administration and plasma was isolated following centrifugation at 2000×g for 5 minutes at 4° C. and frozen. Plasma samples were stored at −80° C. Plasma was thawed and undiluted samples were assessed for cytokine levels using the 36-Plex Mouse ProcartaPlex™ Cytokine Panel 1A (ThermoFisher Scientific) following manufacturer's recommendations. Cytokines were measured on the Bio-Plex 200 (BioRad) following kit instructions. For sample values below or at the lower limit of quantitation (LLOQ) of the assay, a value of 0.01 pg/mL was instead used in determining mean cytokine concentrations.

Cxcl2 = test: PBMC gene expression (qPCR, 6 hours post-treatment): Cxcl2 (Example 17); type: in vivo, BALB/C mice
Procedure: (§1) Hydrogels were administered as suspensions in PTP buffer. […] Tumors were excised, weighed and snap frozen.
(§2) For PBMC isolations, approximately 600 μl of whole blood was collected via cardiac puncture. The collected whole blood from each individual mouse was diluted with a 1:1 ratio of pre-warmed PBS supplemented with 2% Fetal Bovine Serum (FBS). Then an equal volume of Histopaque-1083 was added to a new sterile 15 mL conical tube, where the diluted whole blood was layered over the Histopaque-1083. The mixture was then centrifuged at 400 g for 30 minutes. […]
(§3) Lysates from untreated control samples and 6 hour treated samples were thawed and RNA was isolated using the RNeasy Mini Kit (QIAGEN) following manufacturer's recommendations. […] RNA concentrations were measured using a NanoDrop (ThermoFisher) and then adjusted to […] with RNase-free water. RNA quality was assessed using a NanoDrop (ThermoFisher). […] 200 ng of cDNA was used for quantitative PCR using the RT^2 SYBR Green ROX qPCR Master mix (2×) kit (QIAGEN) following manufacturer's recommendations. […]
(§4) Cycle thresholds (CT) were collected using a 384-well platform ABI-7900H real-time qPCR system (Applied Biosystems). […] 2^ΔΔCT values were calculated with the following formula: […]
(§5) For each gene, 3 technical replicates were analyzed per biological replicate. Undetermined technical replicate CT values were recorded as zero ΔCT values. […]

Il10 = test: PBMC gene expression (qPCR, 6 hours post-treatment): Il10 (Example 17); type: in vivo, BALB/C mice
Procedure: as §1, §2, §3, §4, §5

Ifna4 = test: PBMC gene expression (qPCR, 6 hours post-treatment): Ifna4 (Example 17); type: in vivo, BALB/C mice
Procedure: as §1, §2, §3, §4, §5

Substance: Resiquimod [Compound 4]
- Absolute tumor volume, Mean (CT26 tumor cells; day 0 post-treatment): 88.82 mm^3
- Absolute tumor volume, Mean (CT26 tumor cells; day 2 post-treatment): 108.44 mm^3
- Absolute tumor volume, Mean (CT26 tumor cells; day 4 post-treatment): 128.42 mm^3
- Absolute tumor volume, Mean (CT26 tumor cells; day 7 post-treatment): 316.07 mm^3
- Absolute tumor volume, Mean (CT26 tumor cells; day 9 post-treatment): 549.72 mm^3
- Absolute tumor volume, Mean (CT26 tumor cells; day 11 post-treatment): 957.90 mm^3
- Absolute tumor volume, Mean (CT26 tumor cells; day 14 post-treatment): 1220.96 mm^3
- TNFα plasma level, Mean (TNFα; 1 h post-treatment): 830.84 pg/mL
- TNFα plasma level, Mean (TNFα; 3 h post-treatment): 136.25 pg/mL
- TNFα plasma level, Mean (TNFα; 6 h post-treatment): 35.49 pg/mL
- TNFα plasma level, Mean (TNFα; 10 h post-treatment): 43.32 pg/mL
- TNFα plasma level, Mean (TNFα; 24 h post-treatment): 9.74 pg/mL
- Cxcl2 Mean (2^ΔΔCT) (Cxcl2): 35.37
- Cxcl2 Fold change (4/13i) (Cxcl2; ratio of 4 to 13i): 6.43
- Il10 Mean (2^ΔΔCT) (Il10): 2.77†
- Il10 Fold change (4/13i) (Il10; ratio of 4 to 13i): 2.29
- Ifna4 Mean (2^ΔΔCT) (Ifna4): 2.97
- Ifna4 Fold change (4/13i) (Ifna4; ratio of 4 to 13i): 20.48
